Experiment: pKa, dissociation state and displayed color of the azo dyes
Assay type: physicochemical
Conditions: proton dissociated
Description: Thus, in the hair dye composition of the present invention having pH (25° C.) of 7.5 to 12, almost 80% or more of these azo dyes are present in an anionic state where a proton(s) is dissociated.

SMILES	color displayed when a proton(s) dissociates
CSc1nsc(/N=N/c2ccc(O)c(Cl)c2)n1 [Example A-1]	red
NS(=O)(=O)c1ccc2nsc(/N=N/c3ccc(O)c(Cl)c3)c2c1 [Example A-2]	blue
Cn1nccc1/N=N/c1ccc(O)c(Cl)c1 [Example A-3]	yellow

From patent US10485747B2, “Hair-dye composition” (KAO CORPORATION, priority 2014, dated 2019)
